# Assay results reported in patent US20060058383A1 (priority 2004, published 2006).
# Legend:
# [1] = system: human lymphoma cells (Raji); assay: Apoptosis, annexin-V/PI flow cytometry; assay type: cell-based; settings: for apoptotic cells: 30 μM in combination with 100 ng/ml rapamycin; for apoptosis: 30 μM
# Source text: Because the mTOR pathway plays an important role in promoting cellular nutrient metabolism and cell growth, and function to enhance cell survival downstream of the P13K/Akt pathway, the present inventors postulated that a simultaneous inhibition of mTOR and glycolysis, which serve as a major metabolic pathway for ATP generation in cancer cells, would severely impact cellular energy metabolism and have a potent cytotoxic effect against malignant cells. To test this possibility, rapamycin was used as an agent to inhibit mTOR, and glycolycin (3-bromo-2-oxopropionate, abbreviated herein as 3-BrOP) to inhibit glycolysis.
# Cell growth inhibition was determined by direct counting of the cells after they were treated with rapamycin, 3-BrOP, or their combination. A Coulter Z2 Particle Count & Size Analyzer was used to determine cell counts at 24 h, 48 h, and 72 h after drug incubation. Apoptosis was measured by flow cytometric analysis of cells stained with annexin V-FITC and propidium iodide (PI). Cells were treated with the indicated compounds under various incubation conditions as described in the figure legends. The samples were collected, washed with cold PBS, and then suspended in annexin-V binding buffer. The cells were stained with annexin V-FITC for 15 min at room temperature, washed, and then stained with PI. The samples were analyzed using a FACSCalibur flow cytometer equipped with CELLQuestPro software (Becton-Dickinson, San Jose, Calif.).
# Raji cells = assay: Cellular glucose uptake, [3H]-2-deoxyglucose; assay type: cell-based, human; settings: 2 h
# Procedure: After the samples were washed three times with cold PBS, the radioactivity in the cell pellets was quantified by liquid scintillation counting. […] Intracellular nucleotides were extracted from the cells with 0.4 N of perchloric acid (PCA) for 10 min in ice-bath, neutralization with concentrated KOH to pH 7.0, and analyzed by HPLC analysis as described previously (Xu et al., 2005; Seymour et al., 1996). The intracellular ATP contents were calculated using the ATP standard curve generated under identical HPLC conditions, and normalized by equal cell number. The relative cellular ATP levels were expressed as percent of the control cells.
compound,measurement,setting,value
"CCCOC(=O)C(=O)CBr [Glycolycin, propyl 3-bromo-2-oxopropionate]",apoptotic cells,[1]; 24 h,38%
same,apoptotic cells,[1]; 48 h,79%
same,apoptosis,[1]; 24 h,19%
same,apoptosis,[1]; 48 h,49%
same,decrease of glucose uptake,Raji cells; 30 μM,33%
same,decrease of glucose uptake,Raji cells; 50 μM,71%
same,inhibition at 30 µM,"Raji cells; Homo sapiens, Raji, 30 μM, in the presence of rapamycin (100 ng/ml, 18 h pre-treatment)",70%
same,inhibition at 50 µM,"Raji cells; Homo sapiens, Raji, 50 μM, combination with 100 ng/ml of rapamycin (18 h pre-treatment)",94%
